# Measured values as given in paper PMC5674183 (2017).
# Tests used:
# [1] = system: dual labeled ds DNA (DNA, hairpin, hexaethylene glycol (HEG) linker between 10 and 11) TATAGCTATATATAGCTATA; test: FRET melting; conditions: K+ (60 mM K-cacodylate), pH 6 (Table 1; also pH 7), 1 μM compound, 100 nM DNA
# [2] = system: dual labeled BCL-2-C (DNA, i motif) CAGCCCCGCTCCCGCCCCCTTCCTCCCGCGCCCGCCCCT; test: FRET melting; conditions: K+ (60 mM K-cacodylate); pH 6 (folded at pH 4.8); 1 μM compound, 100 nM DNA
# [3] = system: 5′-TAMRA-BCL-2-C (DNA, i motif) CAGCCCCGCTCCCGCCCCCTTCCTCCCGCGCCCGCCCCT; test: fluorescence quenching titration; conditions: K+ (60 mM K-cacodylate); pH 6 (folded at pH 4.8), 25 °C, 250 nM DNA
# [4] = system: 5′-TAMRA-c-MYC-C (DNA, i motif) TCCCCACCTTCCCCACCCTCCCCACCCTCCCCA; test: fluorescence quenching titration; conditions: K+ (60 mM K-cacodylate); pH 6 (folded at pH 4.8), 25 °C, 250 nM DNA
# [5] = system: 5′-TAMRA-BCL-2-G (DNA, G4) AGGGGCGGGCGCGGGAGGAAGGGGGCGGGAGCGGGGCGT; test: fluorescence quenching titration; conditions: K+ (60 mM K-cacodylate); pH 7, 25 °C, 250 nM DNA
# [6] = system: 5′-TAMRA-c-MYC-G (DNA, G4) TGGGGAGGGTGGGGAGGGTGGGGAAGGTGGGGA; test: fluorescence quenching titration; conditions: K+ (60 mM K-cacodylate); pH 7, 25 °C, 250 nM DNA
# [7] = system: 5′-TAMRA-ds DNA (DNA, hairpin, hexaethylene glycol (HEG) linker between 10 and 11) TATAGCTATATATAGCTATA; test: fluorescence quenching titration; conditions: K+ (60 mM K-cacodylate); pH 7, 25 °C, 250 nM DNA; up to 30 μM
# [8] = system: 3′-TAMRA-BCL-2-C (DNA, i motif) CAGCCCCGCTCCCGCCCCCTTCCTCCCGCGCCCGCCCCT; test: fluorescence quenching titration; conditions: K+ (60 mM K-cacodylate); pH 6 (folded at pH 4.8), 25 °C, 250 nM DNA
# [9] = system: 3′-TAMRA-c-MYC-C (DNA, i motif) TCCCCACCTTCCCCACCCTCCCCACCCTCCCCA; test: fluorescence quenching titration; conditions: K+ (60 mM K-cacodylate); pH 6 (folded at pH 4.8), 25 °C, 250 nM DNA
# [10] = system: 3′-TAMRA-BCL-2-G (DNA, G4) AGGGGCGGGCGCGGGAGGAAGGGGGCGGGAGCGGGGCGT; test: fluorescence quenching titration; conditions: K+ (60 mM K-cacodylate); pH 7, 25 °C, 250 nM DNA
# [11] = system: 3′-TAMRA-c-MYC-G (DNA, G4) TGGGGAGGGTGGGGAGGGTGGGGAAGGTGGGGA; test: fluorescence quenching titration; conditions: K+ (60 mM K-cacodylate); pH 7, 25 °C, 250 nM DNA
# [12] = system: BCL-2-C (DNA, i motif) CAGCCCCGCTCCCGCCCCCTTCCTCCCGCGCCCGCCCCT; test: thiazole orange displacement (fluorescence); conditions: K+ (60 mM K-cacodylate); pH 6 (folded at pH 4.8); 0.5 μM thiazole orange displaced, 0.25 μM DNA
# [13] = system: BCL-2-G (DNA, G4) AGGGGCGGGCGCGGGAGGAAGGGGGCGGGAGCGGGGCGT; test: thiazole orange displacement (fluorescence); conditions: K+ (60 mM K-cacodylate); pH 7; 0.5 μM thiazole orange displaced, 0.25 μM DNA
# [14] = system: c-MYC-C (DNA, i motif) TCCCCACCTTCCCCACCCTCCCCACCCTCCCCA; test: thiazole orange displacement (fluorescence); conditions: K+ (60 mM K-cacodylate); pH 6 (folded at pH 4.8); 0.5 μM thiazole orange displaced, 0.25 μM DNA
# [15] = system: c-MYC-G (DNA, G4) TGGGGAGGGTGGGGAGGGTGGGGAAGGTGGGGA; test: thiazole orange displacement (fluorescence); conditions: K+ (60 mM K-cacodylate); pH 7; 0.5 μM thiazole orange displaced, 0.25 μM DNA
# [16] = system: h-TELO-C (DNA, i motif) TAACCCTAACCCTAACCCTAACCC; test: thiazole orange displacement (fluorescence); conditions: K+ (60 mM K-cacodylate); pH 6; thiazole orange displaced, 0.25 μM DNA
# [17] = system: h-TELO-G (DNA, G4) GGGTTAGGGTTAGGGTTAGGG; test: thiazole orange displacement (fluorescence); conditions: K+ (60 mM K-cacodylate); pH 7; thiazole orange displaced, 0.25 μM DNA
# [18] = system: dual labeled c-MYC-G (DNA, G4) TGGGGAGGGTGGGGAGGGTGGGGAAGGTGGGGA; test: FRET melting; conditions: K+ (60 mM K-cacodylate); pH 7; 1 μM compound, 100 nM DNA
ΔT m ([1]; no shift up to 10 μM) [°C],ΔT m [2] [°C],K d [3] [% μM],K d [4] [% μM],K d [5] [% μM],K d [6] [% μM],K d [7] [µM],K d [8] [% μM],K d [9] [% μM],K d [10] [% μM],K d [11] [% μM],DC50 [12] [% μM],DC50 [13] [% μM],DC50 [14] [% μM],DC50 [15] [% μM],DC50 [16],DC50 [17] [% μM],ΔT m ([1]; no shift up to 15 μM) [°C],ΔT m [18] [°C],Compound
0.94 ± 1,29 ± 1,0.3 ± 5,2.4 ± 5,7.2 ± 5,12.5 ± 5,> 25,2.1 ± 5,5.9 ± 5,11.5 ± 5,16.7 ± 5,0.9 ± 5,5.7 ± 5,2.7 ± 5,8.5 ± 5,4 ± 5% μM,9.8 ± 5,,,CN(C)CCCOc1cc(C(=O)NCc2cn(-c3ccc(NC(=O)[C@@H]4CCCN4)cc3)nn2)nc(C(=O)NCc2cn(-c3ccc(NC(=O)[C@@H]4CCCN4)cc3)nn2)c1
,,5.8 ± 5,9.5 ± 5,1.9 ± 5,1.3 ± 5,> 25,10.5 ± 5,15.1 ± 5,4.5 ± 5,4.1 ± 5,8.2 ± 5,2.4 ± 5,6.8 ± 5,1.3 ± 5,> 15 µM,4.7 ± 5,1.1 ± 1,16 ± 1,CN(C)CCCOc1cc(C(=O)NCc2cn(-c3cccc(NC(=O)[C@@H]4CCCN4)c3)nn2)nc(C(=O)NCc2cn(-c3cccc(NC(=O)[C@@H]4CCCN4)c3)nn2)c1
,,,,,,,,,,,7.9 ± 5,9 ± 5,8.4 ± 5,10.2 ± 5,10 ± 5% μM,8.4 ± 5,,,O=C(NCc1cn(-c2ccc(NC(=O)[C@@H]3CCCN3)cc2)nn1)c1cccc(C(=O)NCc2cn(-c3ccc(NC(=O)[C@@H]4CCCN4)cc3)nn2)n1
